Experimental data from patent US11325937B2, “Glycoside compound and preparation method therefor, composition, application, and intermediate” (SHANGHAI HUTCHISON PHARMACEUTICALS LIMITED, priority 2018, dated 2022).

How the values were obtained:
[1] = test system: rats with middle cerebral artery occlusion (MCAO); assay: Acute cerebral infarction model in rats with middle cerebral artery occlusion (MCAO); assay type: in vivo, male SD rats; conditions: Rattus norvegicus, ip, 72 h, MCAO, intraperitoneal injection, TTC staining after 3 days, read-out: ED50 for infarction inhibition rate (%)
From the text: (§1) After obtaining the active molecules that can promote the expression of VEGF-A mRNA in the animal model of inflammatory angiogenesis, a rat model of cerebral infarction was used for further verification. Following the method as described in Longa, E. Z., Longa, E. Z., Weinstein, P. R., Carlson, S. & Commin, R. Reversible middle cerebral artery occlusion without craniectomy in rats. [J]. Stroke, 1989. 1: 84-91, an acute cerebral infarction model was established in rats with middle cerebral artery occlusion (MCAO); and following the method as described in C. dela Torre, T. Fortin, G. A. S. Park, K. S. Butler, P. Kozlowski, B. A. Pappas, H. de Socarraz, J. K. Saunders and M. T. Richard. [J]. Brain Research, 1992. 582:186-195, a chronic cerebral ischemia model was established in rats with permanent ligation of bilateral common carotid arteries (2VO). The inhibition on cerebral infarction and neuroprotection for brain injury of the active molecules screened in Effect Example 2 were verified.
The control drugs were: Edaravone (purchased from Zhejiang Shengtong Biotechnology Co., Ltd.), Clopidogrel bisulfate (purchased from Wuhan Yuancheng Gongchuang Technology Co., Ltd.), and Salvianolate (purchased from Henan Provincial People's Hospital). Clopidogrel bisulfate is a platelet aggregation inhibitor, and Edaravone is a brain protectant (free radical scavenger). The MCAO model of rats was made by the thread occlusion method. The rats used in this effect example were male SD rats weighing 280-320 grams, purchased from Shanghai SLAC Laboratory Animal Co., Ltd. Five SD (Sprague Dawley) rats in each group were administered by intraperitoneal injection, 2 h before surgery, and every 24 h after modeling.
Three days later, the brain was taken, and the rat brain was stained with TTC (2,3,5-triphenyltetrazolium chloride, to detect the cell viability) and then photographed. Infarction rate (%)=(Non-infarction area of right brain section−non-infarction area of left brain section)/total area of brain section*100%. According to t tests, *P<0.05, **P<0.01, ***P<0.001 compared with the model group (MCAO). Infarction inhibition rate (%) at different doses=(infarction rate of model group-infarction rate of treatment group)/infarction rate of model group*100%. The infarction inhibition rate at different doses was plotted, and the ED50 of the drug was calculated.
Moreover, the body weight of the rats was recorded. The rate of body weight change was calculated according to a formula: Rate of body weight change (%)=(final weight-initial weight)/[…].
Three days after the acute cerebral infarction model was established in rats with MCAO, the test rats were scored for neurological function according to the Longa nerve scoring standard.
Three days after the acute cerebral infarction model of MCAO was established in rats, the intact brain tissue was taken out, olfactory bulb and the brain tissue that is 4 mm in front of the frontal pole was removed, and the immediately adjacent brain tissue of 2 mm thick was taken for water content measurement in the brain. The water content in brain tissue is calculated by the formula: (WW−DW)/WW×100%, where WW is the wet weight and DW is the dry weight. Three days after the acute cerebral infarction model of MCAO was established in rats, the brain tissue was stained with Evans Blue (EB, a commonly used azo dye preparation) to evaluate the permeability across the blood-brain barrier (BBB), so as to evaluate the integrity of blood-brain barrier. Both experiments were tested with the optimal dose of each drug previously determined: TG-028 (5 mg/Kg), Salvianolate (20 mg/Kg), Clopidogrel bisulfate (40 mg/Kg), Edaravone (40 mg/Kg).

[2] = test system: rats with permanent ligation of bilateral common carotid arteries (2VO); assay: Chronic cerebral ischemia model in rats with permanent ligation of bilateral common carotid arteries (2VO); assay type: in vivo
From the text: as §1
In the later period of the present invention, a chronic cerebral ischemia model was established in rats with permanent ligation of bilateral common carotid arteries (2VO). TG-028 (5 mg/kg) was administered to 5 rats in each group daily by intraperitoneal injection for 3 weeks. The effects of TG-028 and the control drug Edaravone (40 mg/kg) in the rat model of chronic cerebral ischemia were observed.
3 weeks after the establishment of the rat model of 2VO chronic cerebral ischemia, the Morris water maze experiment was performed on the test rats to determine the effects of drugs on animal learning and memory. The test rats were subjected to ambient positioning and memory training for 5 days. On Day 5 of the training, a positioning navigation experiment was carried out, and the duration for each group of rats from the time of entering the water from different water entry points facing the pool wall to the time of finding the platform, that is, the escape incubation period, was recorded. On Day 6, the platform was removed and a space exploration experiment was carried out. The swimming time of the rats in the target quadrant, the dwell time in the target quadrant, the distance in the target quadrant, and the number of passes through the platform were recorded in 120 s from the time of entering water from a quadrant opposing the target quadrant. The results of the water maze positioning and navigation experiment are shown in FIG. 8 (where Sham is a sham operation group).
After permanent ligation of the bilateral common carotid arteries, a 5-day positioning training was carried out, and […] Morris water maze space exploration experiment was performed after the training.

[3] = test system: VEGF-A mRNA expression in macrophages (RAW264.7); assay: In vitro macrophage experiment: activity of compounds to promote VEGF-A mRNA expression (RT-qPCR); assay type: cell-based; conditions: Mus musculus, RAW264.7 macrophages, 3 h, relative expression, no drug = 1, read-out: Expression level of VEGF-A mRNA; for fold induction at 500 µM: 0.5 mM; for fold induction at 1000 µM: 1 mM; for fold induction at 2000 µM: 2 mM; for fold induction at 3000 µM: 3 mM; for fold induction at 4000 µM: 4 mM
Summary of the method: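 RAW264.7 macrophages were exposed to test compounds at various concentrations for 3 h at 37° C. VEGF-A mRNA was measured by SYBR Green RT-qPCR, normalized to β-Actin, and expressed as 2^−ΔΔCt relative to untreated cells (=1). Activity is the maximal fold induction, with ≥4 as hit criterion.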

VEGF-A mRNA = assay: Sponge implanted animal model of inflammatory angiogenesis: VEGF-A mRNA expression; assay type: in vivo, male C57/BL6 mice; conditions: for activity in promoting VEGF-A mRNA expression compared with Salvianolate (in words): positive control Salvianolate 60 mg/kg/d, sponge implanted mice, 2 weeks
From the text: The target pro-angiogenic compounds TG-052, TG-053, TG-054, TG-028, and TG-055 obtained in Effect Example 1 that perform well at the cellular level were further screened for the active molecules that promote VEGF-A mRNA expression in the “sponge implanted animal model” of inflammatory angiogenesis. […] This model can well reflect the expression of VEGF-A mRNA in macrophages recruited around inflammation.
A sponge implanted mouse model was established following the method as described in Zhang J, Modi Y, and Yarovinsky T, et al. Macrophage β2 integrin-mediated, HuR-dependent stabilization of angiogenic factor-encoding mRNAs in inflammatory angiogenesis. [J]. American Journal of Pathology, 2012. 180(4): 1751-1760. The mice used in the present invention was male C57/BL6 mice aged 6-8 weeks and weighing 20-25 g, purchased from Shanghai SLAC Laboratory Animal Co., Ltd, Production License No: SCXK (Shanghai) 2013-0016. The compound screened in Effect Example 1 was weighed according to the amount intended to be used in two weeks, and then mixed with a gel matrix and a solvent to prepare a sustained-release gel of the compound (see Patent Application No.: CN201610168493.9 for the details of the preparation method of the sustained-release gel and the model establishment and detection methods). The specific steps were as follows. A certain amount of the compound obtained in Effect Example 1 was weighed into a 1.5 mL EP tube, and then a certain amount of poly-L-lactic acid (PLLA) with a weight average molecular weight of less than 10,000 was weighed and mixed with the compound (at a weight ratio of the compound to PLLA of 0.5:1 to 2:1). Finally a certain amount of DMSO (less than 100 microliters) was added, spun, mixed well, and then sealed with a sealing film. After continuous ultrasonication at 200 W and 25° C. for 5 h, a sustained-release gel of the compound was obtained, which was stored at 4° C. for later use.
The prepared sustained-release gel can release the drug completely within 2 weeks. The sustained-release gel and sponge were both subcutaneously implanted in the mice at the back. After 2 weeks, the sponge was taken out, and the residual tissue and fur were removed. The sponge was transferred to a cell culture plate containing 10 mL of DMEM medium containing collagenase (Collagenase:DMEM=10 mg/10 mL), cut, and incubated for 1 h in a cell incubator. Then the culture medium containing sponge debris was filtered, and the resulting filtrate was centrifuged. The supernatant was discarded, and 500 μL of Trizol reagent was added to the pellet, and mixed uniformly by blowing. Then the liquid was transferred to a 1.5 mL EP tube, and stored at −80° C. RNA was extracted according to a conventional method, and the RNA concentration was determined using a microvolume nucleic acid and protein analyzer (Nanodrop2000c). The required volume V of RNA was calculated according to the RNA concentration, and the RNA reverse transcription reaction system was prepared according to Table 1. Then RNA reverse transcription (cDNA synthesis) was carried out according to the conditions described in Table 2. The resulting cDNA was used to prepare a fluorescence quantitative qPCR reaction solution according to Table 3. The fluorescence quantitative qPCR reaction conditions were set according to Table 4, and the fluorescence quantitative PCR reaction was performed using cDNA from the reverse transcription reaction as a template. The relative expression level 2^−ΔΔCt of the target gene was calculated from the Ct value of each sample with the blank group as a control and β-Actin as an internal reference. The expression level of VEGF-A mRNA in the cells extracted from the sponge was observed after 2 weeks. […]

| SMILES | ED50 [1] [mg/kg] | HE staining and Nissl staining of brain sections, hippocampal CA3 neurons (in words) ([2]; 3 weeks after chronic cerebral ischemia, compared with 2VO+NaCl, FIG. 10) | Morris water maze positioning and navigation: escape incubation period and total distance (in words) ([2]; TG-028 5 mg/kg, Edaravone 40 mg/kg, 3 weeks of administration, FIG. 8) | Morris water maze space exploration: number of passes through the platform compared with 2VO+NaCl group ([2]; TG-028 5 mg/kg, Edaravone 40 mg/kg, 3 weeks, FIG. 9) | change in body weight compared with sham operation group (in words) ([2]; TG-028 5 mg/kg, Edaravone 40 mg/kg, i.p. daily, after 1 week, FIG. 7) | fold induction at 500 µM [3] | fold induction at 1000 µM [3] | fold induction at 2000 µM [3] | fold induction at 3000 µM [3] | fold induction at 4000 µM [3] | activity in promoting VEGF-A mRNA expression compared with Salvianolate (in words) (VEGF-A mRNA) | fold induction at 100 µM ([3]; 0.1 mM) | expression of VEGF-A mRNA (in words) (VEGF-A mRNA; various doses, alone, FIG. 19) |
| --- | --- | --- | --- | --- | --- | --- | --- | --- | --- | --- | --- | --- | --- |
| CC1=NN(c2ccccc2)C(=O)C1 [Edaravone, reference compound] | 25.7 | cell morphology in the 2VO+Edaravone group is also improved | different from those of the 2VO+NaCl group | no significant difference | no significant weight increase compared with the sham operation group |  |  |  |  |  |  |  |  |
| COc1ccc(CCO[C@@H]2O[C@H](CO)[C@@H](O)[C@H](O)[C@H]2O)cc1 [TG-053] |  |  |  |  |  | 11.2 | 13.4 | 6.82 | 1.32 | 1.8 | slightly lower activity in promoting the VEGF-A mRNA expression |  |  |
| COc1ccc(CCCO[C@@H]2O[C@H](CO)[C@@H](O)[C@H](O)[C@H]2O)cc1 [TG-054] |  |  |  |  |  | 3.63 | 12.4 | 6.5 | 1.21 | 2.01 | slightly lower activity in promoting the VEGF-A mRNA expression |  |  |
| OC[C@H]1O[C@@H](OCCc2ccc(O)cc2)[C@H](O)[C@@H](O)[C@@H]1O [TG-056, salidroside, reference compound] |  |  |  |  |  | 1.74 | 2.24 | 6.7 | 2.31 |  |  | 0.72 | very low expression of VEGF-A mRNA |
